In patent publication US20100119599A1 (ARCHER PHARMACEUTICALS, INC., priority 2006, published 2010):

How the values were obtained:
Aβ1-40 = assay: Measurement of Aβ1-40 in culture medium of 7W WT APP751 CHO cells by ELISA; format: cell-based, Chinese hamster; details: for activity at 5 µM: Cricetulus griseus, Table 1, 5 μM test compound, CHO cells stably transfected with human APP751, culture medium, ELISA, control DMSO, 0 = no detectable amount; for Aβ1-40 (% of control): CHO cells that overexpress APP751, zero = below the detection limit of the assay
Aβ1-42 = assay: Measurement of Aβ1-42 in culture medium of 7W WT APP751 CHO cells by ELISA; format: cell-based, Chinese hamster; details: for activity at 5 µM: Cricetulus griseus, Table 1, 5 μM test compound, CHO cells stably transfected with human APP751, culture medium, ELISA, control DMSO, 0 = no detectable amount, read-out: Aβ1-42 (% of control); for Aβ1-42 (% of control): CHO cells that overexpress APP751, zero = below the detection limit of the assay
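Further: 5 µM test compound but RI-coded compounds at 10 µM for 24 hours.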

Compound	activity at 5 µM (Aβ1-40) [%]	activity at 5 µM (Aβ1-42) [%]	Aβ1-40 (% of control) (Aβ1-40)	Aβ1-42 (% of control) (Aβ1-42)
CC1=C(C(=O)OCCc2ccccc2)C(c2ccccc2F)C2=C(CC(C)(C)CC2=O)N1 (centres unmarked) [ST052225, 2-phenylethyl 4-(2-fluorophenyl)-2,7,7-trimethyl-5-oxo-1,4,6,7,8-pentahydroquinoline-3-carboxylate]	37.7	29.7	–	–
CCOC(=O)C1=C(C)NC2=C(C(=O)CC(c3ccc(OC)cc3)C2)C1c1cccc(Cl)c1 (centres unmarked) [ST017144, ethyl 4-(3-chlorophenyl)-7-(4-methoxyphenyl)-2-methyl-5-oxo-1,4,6,7,8-pentahydroquinoline-3-carboxylate]	23.4	55.6	–	–
COC(=O)C1=C(C)NC(C)=C(C(=O)OC)C1c1ccc(Br)cc1 [ST208633, methyl 4-(4-bromophenyl)-5-(methoxycarbonyl)-2,6-dimethyl-1,4-dihydropyridine-3-carboxylate]	–	–	9.12 % of control	0 % of control
CCCCOC(=O)C1=C(C)NC2=C(C(=O)CC(C)(C)C2)C1c1ccc(Cl)c(Cl)c1 (centres unmarked) [ST215419, butyl 4-(3,4-dichlorophenyl)-2,7,7-trimethyl-5-oxo-1,4,6,7,8-pentahydroquinoline-3-carboxylate]	0	0	–	–
CCc1ccc(C2C(C(=O)OCC(C)C)=C(C)NC3=C2C(=O)CC(c2ccccc2)C3)cc1 (centres unmarked) [ST016970, 2-methylpropyl 4-(4-ethylphenyl)-2-methyl-5-oxo-7-phenyl-1,4,6,7,8-pentahydroquinoline-3-carboxylate]	27.7	27.8	–	–
CC1=C(C(=O)Nc2ccccc2)C(c2cccs2)C(C#N)=C(SCC(=O)Nc2ccc(C)c(C)c2)N1 (centres unmarked) [ST041706, N-(3,4-dimethylphenyl)-2-[3-cyano-6-methyl-5-(N-phenylcarbamoyl)-4-(2-thienyl) (2-1,4-dihydropyridylthio)]acetamide]	–	–	68.73 % of control	50.13 % of control
CCCOC(=O)C1=C(C)NC2=C(C(=O)CC(C)(C)C2)C1c1ccncc1 (centres unmarked) [ST017249, propyl 2,7,7-trimethyl-5-oxo-4-(4-pyridyl)-1,4,6,7,8-pentahydroquinoline-3-carboxylate]	67	75.1	–	–
COC(=O)C1=C(C)NC2=C(C(=O)CCC2)C1c1cccc(OC)c1 (centres unmarked) [ST013153, methyl 4-(3-methoxyphenyl)-2-methyl-5-oxo-1,4,6,7,8-pentahydroquinoline-3-carboxylate]	91.4	66.3	–	–
CCOC(=O)C1=C(C)NC2=C(C(=O)CC(c3ccc(OC)cc3)C2)C1c1ccc(OC)cc1 (centres unmarked) [ST017136, ethyl 4,7-bis(4-methoxyphenyl)-2-methyl-5-oxo-1,4,6,7,8-pentahydroquinoline-3-carboxylate]	87.7	66.1	–	–
CCCCCOC(=O)C1=C(C)NC2=C(C(=O)CC(C)(C)C2)C1c1cc2c(cc1Br)OCO2 (centres unmarked) [ST216568, pentyl 4-(6-bromo(2H-benzo[d]1,3-dioxolan-5-yl))-2,7,7-trimethyl-5-oxo-1,4,6,7,8-pentahydroquinoline-3-carboxylate]	14.8	24.7	–	–
COCCOC(=O)C1=C(C)NC2=C(C(=O)CCC2)C1c1ccc(N(C)C)cc1 (centres unmarked) [ST013251, 2-methoxyethyl 4-[4-(dimethylamino)phenyl]-2-methyl-5-oxo-1,4,6,7,8-pentahydroquinoline-3-carboxylate]	89.4	58.6	–	–
CC1=C(C(=O)OCCc2ccccc2)C(c2cccc(Br)c2)C2=C(CCCC2=O)N1 (centres unmarked) [ST052221, 2-phenylethyl 4-(3-bromophenyl)-2-methyl-5-oxo-1,4,6,7,8-pentahydroquinoline-3-carboxylate]	62.4	46.1	–	–
CCOCCOC(=O)C1=C(C)NC2=C(C(=O)CCC2)C1c1ccc(OC(C)=O)cc1 (centres unmarked) [ST013435, 4-{3-[(2-ethoxyethyl)oxycarbonyl]-2-methyl-5-oxo-4-1,4,6,7,8-pentahydroquinolyl}phenyl acetate]	64.7	70.1	–	–
CCCOC(=O)C1=C(C)NC2=C(C(=O)CC(c3ccccc3)C2)C1c1ccc(CC)cc1 (centres unmarked) [ST017264, propyl 4-(4-ethylphenyl)-2-methyl-5-oxo-7-phenyl-1,4,6,7,8-pentahydroquinoline-3-carboxylate]	29.7	48.2	–	–
COC(=O)C1=C(C)NC2=C(C(=O)CC(c3cccs3)C2)C1c1cc(OC)c(Br)cc1OC (centres unmarked) [ST045143, methyl 4-(4-bromo-2,5-dimethoxyphenyl)-2-methyl-5-oxo-7-(2-thienyl)-1,4,6,7,8-pentahydroquinoline-3-carboxylate]	22.9	16	–	–
CC1=C(C(=O)OC2CCCCC2)C(c2ccc(Cl)c(Cl)c2)C2=C(CC(c3ccccc3)CC2=O)N1 (centres unmarked) [ST013350, cyclohexyl 4-(3,4-dichlorophenyl)-2-methyl-5-oxo-7-phenyl-1,4,6,7,8-pentahydroquinoline-3-carboxylate]	25.1	95.6	–	–

Compound	activity at 5 µM (Aβ1-40) [%]	activity at 5 µM (Aβ1-42) [%]	Aβ1-40 (% of control) (Aβ1-40)	Aβ1-42 (% of control) (Aβ1-42)
COc1ccc(C2C(C(=O)OC3CCCCC3)=C(C)NC3=C2C(=O)CCC3)cc1Br (centres unmarked) [ST013429, cyclohexyl 4-(3-bromo-4-methoxyphenyl)-2-methyl-5-oxo-1,4,6,7,8-pentahydroquinoline-3-carboxylate]	31.9	45.4	–	–
COC(=O)C1=CNC=C(C(=O)OC)C1c1cccc(OCc2ccccc2)c1 [ST052273, methyl 5-(methoxycarbonyl)-4-[3-(phenylmethoxy)phenyl]-1,4-dihydropyridine-3-carboxylate]	–	–	84.66 % of control	57.92 % of control
CCSCCOC(=O)C1=C(C)NC2=C(C(=O)CCC2)C1c1ccc(OCCO)c(OC)c1 (centres unmarked) [ST017113, 2-ethylthioethyl 4-[4-(2-hydroxyethoxy)-3-methoxyphenyl]-2-methyl-5-oxo-1,4,6,7,8-pentahydroquinoline-3-carboxylate]	82.6	74.1	–	–
CCCOCCOC(=O)C1=C(C)NC2=C(C(=O)CC(C)(C)C2)C1c1ccccc1Cl (centres unmarked) [ST052454, 2-propoxyethyl 4-(2-chlorophenyl)-2,7,7-trimethyl-5-oxo-1,4,6,7,8-pentahydroquinoline-3-carboxylate]	25.6	33.2	–	–
COC(=O)C1=CN(CC2CCCO2)C=C(C(=O)OC)C1c1cccc(OC)c1OC (centres unmarked) [ST051459, methyl 4-(2,3-dimethoxyphenyl)-5-(methoxycarbonyl)-1-(oxolan-2-ylmethyl)-1,4-dihydropyridine-3-carboxylate]	–	–	70.09 % of control	85.96 % of control
CC1=C(C(=O)Nc2ccccc2)C(c2cccs2)C(C#N)=C(SCC(=O)NCCC(C)(C)C)N1 (centres unmarked) [RI_17]	–	–	18.2 % of control	24.1 % of control
COC(=O)C1=C(C)NC2=C(C(=O)CC(c3ccc(OC)cc3)C2)C1c1ccc(C)cc1 (centres unmarked) [ST013332, methyl 7-(4-methoxyphenyl)-2-methyl-4-(4-methylphenyl)-5-oxo-1,4,6,7,8-pentahydroquinoline-3-carboxylate]	45.1	68	–	–
COc1cc(/C=c2\sc3n(c2=O)C(N)=C(C#N)C(c2ccc(OC(C)C)c(OC)c2)C=3C#N)ccc1OC(C)C (centres unmarked) [ST025029, 5-amino-7-[3-methoxy-4-(methylethoxy)phenyl]-2-{[3-methoxy-4-(methylethoxy)phenyl]methylene}-3-oxo-4,7-dihydro-1,3-thiazolidino[3,2-a]pyridine-6,8-dicarbonitrile]	–	–	65.7 % of control	73.69 % of control
CC1=C(C(=O)OCc2ccccc2)C(c2ccc([N+](=O)[O-])cc2)C2=C(CC(C)(C)CC2=O)N1 (centres unmarked) [ST013214, phenylmethyl 2,7,7-trimethyl-4-(4-nitrophenyl)-5-oxo-1,4,6,7,8-pentahydroquinoline-3-carboxylate]	0	4.36	–	–
CCCOc1ccc(C2C(C(=O)OCCSCC)=C(C)NC3=C2C(=O)CC(C)(C)C3)cc1OC (centres unmarked) [ST017116, 2-ethylthioethyl 4-(3-methoxy-4-propoxyphenyl)-2,7,7-trimethyl-5-oxo-1,4,6,7,8-pentahydroquinoline-3-carboxylate]	43.5	43	–	–
CC1=C(C(=O)Nc2ccc(Cl)cc2)C(c2ccsc2)C(C#N)=C(SCC(=O)Nc2cccc(Cl)c2C)N1 (centres unmarked) [RI_53]	–	–	56 % of control	99.2 % of control
CCc1cccc(NC(=O)CSC2=C(C#N)C(c3sccc3Br)C(C(=O)Nc3ccccc3)=C(C)N2)c1 (centres unmarked) [RI_82]	–	–	67.5 % of control	67.9 % of control
CCOC(=O)C1=C(N)n2c(s/c(=C/c3ccccc3Cl)c2=O)=C(C#N)C1c1ccccc1Cl (centres unmarked) [ST215651, ethyl 5-amino-7-(2-chlorophenyl)-2-[(2-chlorophenyl)methylene]-8-cyano-3-oxo-4,7-dihydro-1,3-thiazolidino[3,2-a]pyridine-6-carboxylate]	–	–	80.92 % of control	42.3 % of control
CCCCCOC(=O)C1=C(C)NC2=C(C(=O)CCC2)C1c1ccccc1OCC (centres unmarked) [ST015174, pentyl 4-(2-ethoxyphenyl)-2-methyl-5-oxo-1,4,6,7,8-pentahydroquinoline-3-carboxylate]	17.2	0	–	–
COC(=O)C1=CN(Cc2ccc(F)cc2)C=C(C(=O)OC)C1c1ccc(OC)cc1OC [ST038081, methyl 4-(2,4-dimethoxyphenyl)-1-[(4-fluorophenyl)methyl]-5-(methoxycarbonyl)-1,4-dihydropyridine-3-carboxylate]	–	–	36.22 % of control	92.93 % of control
